Test results from patent publication US20070128217A1 (priority 2003, published 2007).

Experiments:
[1] = system: antibodies in sera from SARS patients (sera 1a, 1b, 2, 6, 37, 62, London, SARS-yellow, SARS-green); type: binding, human; design: Binding of serum 6 to linear peptides of protein X1 of SARS-CoV Urbani / Binding of serum 37 to linear peptides of protein X1 of SARS-CoV Urbani / Binding of serum 6 to looped/cyclic peptide (PEPSCAN-ELISA) / Binding of serum 37 to looped/cyclic peptide (PEPSCAN-ELISA) / Binding of serum 37 to looped/cyclic peptides of protein X1 of SARS-CoV Urbani / Binding of serum 6 to linear peptides of protein X2 / Binding of serum 37 to linear peptides of protein X2 / Binding of serum 37 to looped/cyclic peptides of protein X2 of SARS-CoV Urbani / Binding of serum 6 to linear peptides of protein M of SARS-CoV Urbani / Binding of serum 37 to linear peptides of protein M of SARS-CoV Urbani / Binding of serum 6 to looped/cyclic peptides of protein M of SARS-CoV Urbani / Binding of serum 37 to looped/cyclic peptides of protein M of SARS-CoV Urbani / Binding of serum 6 to linear peptides of protein X3 of SARS-CoV Urbani / Binding of serum 37 to linear peptides of protein X3 of SARS-CoV Urbani / Binding of serum 37 to looped/cyclic peptides of protein X3 of SARS-CoV Urbani / Binding of serum 6 to linear peptides of protein X4 of SARS-CoV Urbani / Binding of serum 37 to linear peptides of protein X4 of SARS-CoV Urbani / Binding of serum 37 to looped/cyclic peptides of protein X4 of SARS-CoV Urbani / Binding of serum 6 to linear peptides of protein X5 of SARS-CoV Urbani / Binding of serum 37 to linear peptides of protein X5 of SARS-CoV Urbani / Binding of serum 37 to looped/cyclic peptides of protein X5 of SARS-CoV Urbani / Binding of serum 6 to linear peptides of protein N of SARS-CoV Urbani / Binding of serum 37 to linear peptides of protein N of SARS-CoV Urbani / Binding of serum 6 to linear peptide (PEPSCAN-ELISA) / Binding of serum 1a to looped/cyclic peptides of protein N of SARS-CoV Urbani / Binding of serum 1b to looped/cyclic peptides of protein N of SARS-CoV Urbani / Binding of serum 2 to looped/cyclic peptides of protein N of SARS-CoV Urbani / Binding of serum 6 to looped/cyclic peptides of protein N of SARS-CoV Urbani / Binding of serum 37 to looped/cyclic peptides of protein N of SARS-CoV Urbani / Binding of serum 62 to looped/cyclic peptides of protein N of SARS-CoV Urbani / Binding of serum London to looped/cyclic peptides of protein N of SARS-CoV Urbani / Binding of serum SARS-green to looped/cyclic peptides of protein N of SARS-CoV Urbani: unit not given here
[2] = system: control sera (pooled serum of ten healthy LUMC hospital workers; commercial negative donor pooled serum from the Dutch bloodbank); type: binding, human; design: Binding of Control serum LUMC to linear peptides / Binding of Control serum Blood-bank to linear peptides / Binding of Control serum LUMC to looped peptides / Binding of Control Serum Blood-Bank to Looped peptides / Binding of Control serum LUMC to linear peptides of the protein M of SARS-CoV Urbani / Binding of Control serum Blood-bank to linear peptides of the protein M of SARS-CoV Urbani / Binding of Control serum LUMC to looped peptides of the protein M of SARS-CoV Urbani / Binding of Control Serum Blood-Bank to Looped peptides of the protein M of SARS-CoV Urbani: unit not given here
[3] = system: rabbit serum obtained by immunizing a rabbit with the SARS-CoV strain Frankfurt 1; type: binding; design: Binding of a rabbit serum to linear peptides / Binding of a rabbit serum to looped peptides / Rabbit serum linear peptides / Rabbit serum looped peptides / Binding of a rabbit serum to linear peptides of protein N of SARS-CoV Urbani (Rabbit serum linear peptides) / Binding of a rabbit serum to looped/cyclic peptides of protein N of SARS-CoV Urbani (Rabbit serum looped peptides): unit not given here

Sequence | Binding of serum 1a to looped/cyclic peptides of protein X2 of SARS-CoV Urbani [1] | Binding of serum 1b to looped/cyclic peptides of protein X2 of SARS-CoV Urbani [1] | Binding of serum 2 to looped/cyclic peptides of protein X2 of SARS-CoV Urbani [1] | Binding of serum 6 to looped/cyclic peptides of protein X2 of SARS-CoV Urbani [1] | Binding of Control Serum Blood-Bank to Looped peptides [2] | Binding of Control serum Blood-bank to linear peptides [2] | Binding of Control serum LUMC to linear peptides [2] | Binding of Control serum LUMC to looped peptides [2] | Binding of a rabbit serum to linear peptides [3] | Binding of a rabbit serum to looped peptides [3] | Recognition of the peptide by sera of SARS-CoV infected individuals, and form (linear, looped/cyclic) in which it is recognized [1] | Binding of serum 1a to looped/cyclic peptide (PEPSCAN-ELISA) [1] | Binding of serum 1b to looped/cyclic peptide (PEPSCAN-ELISA) [1] | Binding of serum 2 to looped/cyclic peptide (PEPSCAN-ELISA) [1] | Binding of serum 6 to looped/cyclic peptide (PEPSCAN-ELISA) [1] | Binding of serum 37 to looped/cyclic peptide (PEPSCAN-ELISA) [1] | Binding of serum 62 to looped/cyclic peptide (PEPSCAN-ELISA) [1] | Binding of serum London to looped/cyclic peptide (PEPSCAN-ELISA) [1] | Binding of serum SARS-green to looped/cyclic peptide (PEPSCAN-ELISA) [1] | Binding of serum SARS-yellow to looped/cyclic peptide (PEPSCAN-ELISA) [1] | other results
KYTQSTALQELLIQQ | 0.8 | 1.0 | 0.7 | 0.7 | 0.9 | 0.6 | 0.5 | 1.0 | 0.4 | 0.4 |  |  |  |  |  |  |  |  |  |  | Binding of serum 1a to linear peptides of protein X2 [1]: 0.7; Binding of serum 1b to linear peptides of protein X2 [1]: 0.6; Binding of serum 2 to linear peptides of protein X2 [1]: 0.4; Binding of serum 6 to linear peptides of protein X2 [1]: 0.5; Binding of serum 37 to linear peptides of protein X2 [1]: 0.6; Binding of serum 37 to looped/cyclic peptides of protein X2 of SARS-CoV Urbani [1]: 0.8; Binding of serum 62 to linear peptides of protein X2 [1]: 0.6; Binding of serum 62 to looped/cyclic peptides of protein X2 of SARS-CoV Urbani [1]: 1.0; Binding of serum London to linear peptides of protein X2 [1]: 0.5; Binding of serum London to looped/cyclic peptides of protein X2 of SARS-CoV Urbani [1]: 0.5; Binding of serum SARS-green to linear peptides of protein X2 [1]: 0.6; Binding of serum SARS-green to looped/cyclic peptides of protein X2 of SARS-CoV Urbani [1]: 0.9; Binding of serum SARS-yellow to linear peptides of protein X2 [1]: 0.6; Binding of serum SARS-yellow to looped/cyclic peptides of protein X2 of SARS-CoV Urbani [1]: 0.8
LACLCKHKKVSTNLC | 0.3 | 0.3 | 0.2 | 0.2 | 0.3 | 0.8 | 0.7 | 0.4 | 0.3 | 0.3 | recognized in linear form |  |  |  |  |  |  |  |  |  | Binding of serum 37 to looped/cyclic peptides of protein X2 of SARS-CoV Urbani [1]: 0.3; Binding of serum 62 to looped/cyclic peptides of protein X2 of SARS-CoV Urbani [1]: 0.4; Binding of serum London to looped/cyclic peptides of protein X2 of SARS-CoV Urbani [1]: 0.2; Binding of serum SARS-green to looped/cyclic peptides of protein X2 of SARS-CoV Urbani [1]: 0.2; Binding of serum SARS-yellow to looped/cyclic peptides of protein X2 of SARS-CoV Urbani [1]: 0.3
LALYKGFQFICNLLL |  |  |  |  | 0.6 | 0.6 | 0.5 | 0.6 | 0.2 | 0.6 |  | 0.5 | 0.3 | 0.4 | 1.4 | 0.5 | 0.5 | 1.4 | 0.2 | 0.5 | Binding of serum 1a to linear peptides of protein X1 of SARS-CoV Urbani [1]: 0.7; Binding of serum 1b to linear peptides of protein X1 of SARS-CoV Urbani [1]: 0.5; Binding of serum 2 to linear peptides of protein X1 of SARS-CoV Urbani [1]: 0.5; Binding of serum 6 to linear peptides of protein X1 of SARS-CoV Urbani [1]: 0.4; Binding of serum 37 to linear peptides of protein X1 of SARS-CoV Urbani [1]: 0.5; Binding of serum 62 to linear peptides of protein X1 of SARS-CoV Urbani [1]: 0.6; Binding of serum London to linear peptides of protein X1 of SARS-CoV Urbani [1]: 0.2; Binding of serum SARS-green to linear peptides of protein X1 of SARS-CoV Urbani [1]: 0.2; Binding of serum SARS-yellow to linear peptides of protein X1 of SARS-CoV Urbani [1]: 0.5
LAVFQSATKIIALNK |  |  |  |  | 0.5 | 0.7 | 0.6 | 0.6 | 0.1 | 0.7 |  | 0.5 | 0.4 | 0.5 | 0.6 | 0.5 | 0.6 | 0.7 | 0.3 | 0.5 | Binding of serum 1a to linear peptides of protein X1 of SARS-CoV Urbani [1]: 0.7; Binding of serum 1b to linear peptides of protein X1 of SARS-CoV Urbani [1]: 0.5; Binding of serum 2 to linear peptides of protein X1 of SARS-CoV Urbani [1]: 0.5; Binding of serum 6 to linear peptides of protein X1 of SARS-CoV Urbani [1]: 0.6; Binding of serum 37 to linear peptides of protein X1 of SARS-CoV Urbani [1]: 0.6; Binding of serum 62 to linear peptides of protein X1 of SARS-CoV Urbani [1]: 0.5; Binding of serum London to linear peptides of protein X1 of SARS-CoV Urbani [1]: 0.2; Binding of serum SARS-green to linear peptides of protein X1 of SARS-CoV Urbani [1]: 0.3; Binding of serum SARS-yellow to linear peptides of protein X1 of SARS-CoV Urbani [1]: 0.4
LCKHKKVSTNLCTHS |  |  |  |  | 0.3 | 0.8 | 0.7 | 0.4 | 0.3 | 0.3 | recognized in linear form |  |  |  |  |  |  |  |  |  | 
LCWKCKSKNPLLYDA |  |  |  |  | 0.8 | 0.7 | 0.7 | 0.8 | 0.3 | 0.8 | recognized in linear form | 0.8 | 0.5 | 0.7 | 0.8 | 0.7 | 0.8 | 0.3 | 0.3 | 0.7 | 
